Data from PubChem BioAssay (NCI).
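Cultured in 96-well plates, cells were exposed to test compound for 48 hours across five concentrations. At the GI50, growth is halved. TGI: concentration producing complete growth inhibition.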

Columns and labels:
Experiment in all cases: inhibition of tumour cell growth, NCI panel, 48 h
[1] = system: 786-0 renal
[2] = system: A498 renal
[3] = system: ACHN renal
[4] = system: CAKI-1 renal
[5] = system: CCRF-CEM leukemia
[6] = system: COLO 205 colon
[7] = system: DU-145 prostate
[8] = system: HCC-2998 colon
[9] = system: HCT-116 colon
[10] = system: HCT-15 colon
[11] = system: HL-60(TB) leukemia
[12] = system: HOP-62 NSCLC
[13] = system: HOP-92 NSCLC
[14] = system: HS 578T breast
[15] = system: HT29 colon
[16] = system: IGROV1 ovarian
[17] = system: K-562 leukemia
[18] = system: LOX IMVI melanoma
[19] = system: MALME-3M melanoma
[20] = system: MCF7 breast
[21] = system: MDA-MB-231 breast
[22] = system: MDA-MB-435
[23] = system: MOLT-4 leukemia
[24] = system: NCI-H226 lung
[25] = system: NCI-H460 lung
[26] = system: NCI-H522 lung
[27] = system: NCI/ADR-RES ovarian
[28] = system: OVCAR-3 ovarian
[29] = system: OVCAR-5 ovarian
[30] = system: OVCAR-8 ovarian
[31] = system: PC-3 prostate
[32] = system: RPMI-8226 leukemia
[33] = system: RXF 393 renal
[34] = system: SF-268 CNS
[35] = system: SF-295 CNS
[36] = system: SF-539 CNS
[37] = system: SK-MEL-2 melanoma
[38] = system: SK-MEL-28 melanoma
[39] = system: SK-MEL-5 melanoma
[40] = system: SN12C renal
[41] = system: SNB-19 CNS
[42] = system: SNB-75 CNS
[43] = system: SR leukemia
[44] = system: SW-620 colon
[45] = system: T-47D breast
[46] = system: U251 CNS
[47] = system: UACC-62 melanoma
[48] = system: UO-31 renal

For `Cc1nc2ccccc2c(/C=C/c2ccc(Cl)cc2)c1C(=O)/C=C/c1ccc(F)cc1`, the GI50 [1] was 1780 nM, the TGI [1] was 3480 nM and the GI50 [2] was 1790 nM. For the same compound, the TGI [2] was 3220 nM, the GI50 [3] was 1510 nM and the TGI [3] was 2830 nM. It also gave a GI50 [4] of 1110 nM, a TGI [4] of 2310 nM and a GI50 [5] of 1260 nM. For the same compound, the TGI [5] was greater than 100000 nM, the GI50 [6] was 2080 nM and the TGI [6] was 4910 nM. The GI50 [7] was 1680 nM, the TGI [7] was 3650 nM and the GI50 [8] was 1530 nM. For the same compound, the TGI [8] was 3010 nM, the GI50 [9] was 531 nM and the TGI [9] was 2140 nM. For the same compound, the GI50 [10] was 1060 nM, the TGI [10] was 2910 nM and the GI50 [11] was 1570 nM. It also gave a TGI [11] of 4130 nM, a GI50 [12] of 1890 nM and a TGI [12] of 3710 nM. The GI50 [13] was 1190 nM, the TGI [13] was 2890 nM and the GI50 [14] was 2170 nM. The TGI [14] was 5940 nM, the GI50 [15] was 1210 nM and the TGI [15] was 7540 nM. The GI50 [16] was 1150 nM, the TGI [16] was 2690 nM and the GI50 [17] was 1200 nM. The TGI [17] was greater than 100000 nM, the GI50 [18] was 1320 nM and the TGI [18] was 2610 nM. The GI50 [19] was 1640 nM, the TGI [19] was 3010 nM and the GI50 [20] was 781 nM. It also gave a TGI [20] of 4320 nM, a GI50 [21] of 1920 nM and a TGI [21] of 4770 nM. It also gave a GI50 [22] of 1550 nM, a TGI [22] of 3210 nM and a GI50 [23] of 1190 nM. It also gave a TGI [23] of 7200 nM, a GI50 [24] of 1680 nM and a TGI [24] of 3570 nM. It also gave a GI50 [25] of 1390 nM, a TGI [25] of 2850 nM and a GI50 [26] of 1440 nM. It also gave a TGI [26] of 4040 nM, a GI50 [27] of 1850 nM and a TGI [27] of 4110 nM. The GI50 [28] was 1460 nM, the TGI [28] was 2800 nM and the GI50 [29] was 1630 nM. For the same compound, the TGI [29] was 3490 nM, the GI50 [30] was 1620 nM and the TGI [30] was 4160 nM. For the same compound, the GI50 [31] was 1600 nM, the TGI [31] was 3710 nM and the GI50 [32] was 1370 nM. For the same compound, the TGI [32] was 4480 nM, the GI50 [33] was 1660 nM and the TGI [33] was 3160 nM. The GI50 [34] was 1520 nM, the TGI [34] was 3040 nM and the GI50 [35] was 1750 nM. It also gave a TGI [35] of 3220 nM, a GI50 [36] of 1760 nM and a TGI [36] of 3250 nM. The GI50 [37] was 1870 nM, the TGI [37] was 3790 nM and the GI50 [38] was 1810 nM. The TGI [38] was 3350 nM, the GI50 [39] was 1620 nM and the TGI [39] was 2970 nM. For the same compound, the GI50 [40] was 1810 nM, the TGI [40] was 4070 nM and the GI50 [41] was 1540 nM. The TGI [41] was 2890 nM, the GI50 [42] was 1160 nM and the TGI [42] was 2370 nM. It also gave a GI50 [43] of 704 nM, a TGI [43] of 5470 nM and a GI50 [44] of 1420 nM. For the same compound, the TGI [44] was 3430 nM, the GI50 [45] was 1100 nM and the TGI [45] was 2860 nM. The GI50 [46] was 1440 nM, the TGI [46] was 2920 nM and the GI50 [47] was 1490 nM. For the same compound, the TGI [47] was 2910 nM, the GI50 [48] was 1150 nM and the TGI [48] was 2360 nM.
